Experiment [1] is described as follows: Non-competitive inhibition of rat intestinal maltase using maltose as substrate assessed as dissociation of enzyme-substrate-inhibitor complex at 0.1 to 1 mg/ml by secondary plot analysis.
Experiment [2] in a line: Competitive inhibition of rat intestinal maltase using maltose as substrate assessed as dissociation of enzyme-inhibitor complex at 0.1 to 1 mg/ml by Dixon plot analysis.

Broadly, the Ki is the equilibrium dissociation constant of an inhibitor or competing ligand from its target. On to `COc1cc([C@@H]2OC[C@@H]3[C@H]2CO[C@H]3c2ccc(O)c(OC)c2)ccc1O` [4-[(1S,3aR,4S,6aR)-4-(4-hydroxy-3-methoxyphenyl)tetrahydro-1H,3H-furo[3,4-c]furan-1-yl]-2-methoxyphenol], for which the inhibition constant Ki worked out at 1340 µM in experiment [1] and 288 µM in experiment [2].

The values above are taken from BindingDB's records for doi:10.1016/j.bmcl.2012.06.068 (Chulalongkorn University, 2012).
